# pIC50: −log10 of the molar value. Where two headings read alike, the source gives them in different places.
# Key:
# IL-1β = assay: Gene expression profile using RTQ-PCR: IL-1β; format: cell-based, human; settings: 3 μM
# Protocol: The effect of the compound of example 7 was measured in stimulated untreated cells from the monocytic cell line (THP-1), human monocytes and synovial cells from rheumatoid arthritis patient. The effect of the compound in the THP-1 cell line was measured in terms of gene expression and was expressed as fold changes as compared to the cell stimulated control with no drug treatment.
# THP-1 cells, human monocytes and synovial cells were treated with compound of example 7 or vehicle (0.5% DMSO). Total RNA isolation using a commercial RNA extraction kit (Qiagen Corporation, Germany) The first-strand cDNA was synthesized from total RNA using first strand cDNA synthesis kit from Invitrogen Corporation (California, USA). This was followed by real time quantitative polymerase chain reaction (RTQ PCR) using gene specific primers and standard thermal program of initial denaturation at 95° C. for 5 min and cycles of 95° C. for 10 seconds, followed by 60° C. for 30 seconds (Realplex PCR machine from Eppendorf, Germany). Quantitative measurement of products made during PCR cycles was normalized against a housekeeping gene (Actin) and was used to measure the gene expression as fold changes as compared to respective control.
# IL-2 = assay: Cytokine release assay in hPBMCs: IL-2; format: cell-based; settings: Homo sapiens
# Protocol: (§1) hPBMCs were obtained from healthy donors by centrifugation of heparinized venous blood over Ficoll/Hypaque solution (Histopaque-1077, Sigma, USA). Isolated hPBMCs were suspended in RPMI 1640 culture medium supplemented with 10% FBS and seeded at a density of 50,000 cells/well in a 96-well plate (Nunc, USA). The cells were incubated at 37° C., 5% CO2 for a period of 24 h. These cells were used for the lymphocyte proliferation as well as cytokine release assay.
# (§2) The plated cells were treated with different concentrations of the test compound (prepared as mM stock in DMSO and diluted with DMSO to achieve the following final concentrations in the assay: 100, 10, 1, 0.1, 0.01, 0.001, 0.0001, 0.00001 and 0.000001 μM) and incubated for 30 min. The cells were then stimulated with PHA (prepared as 1 mg/mL stock in RPMI 1640 culture medium and used at a final concentration of 5 μg/mL). FK506 was used as a standard. The plates were incubated at 37° C., 5% CO2 for 48 h. The cytokines in the supernatant collected were detected using ELISA kit (BD biosciences, USA). The cytokines evaluated in the assay were TNF-α, IL-2, IL-6, and IFN-γ.
# TNF-α = assay: Synovial tissue assay (spontaneous production): TNF-α; format: cell-based; settings: Homo sapiens, synovial tissue cells from rheumatoid arthritis patients, 16 h, read-out: IC50 of TNF-α inhibition
# Excerpt: The ability of compounds of the present invention to inhibit spontaneous production of cytokines from freshly isolated human synovial tissue cells was designed as in reference, Lancet, 29, 244-247, (1989) the disclosure of which is incorporated by reference for the teaching of the assay.
# Synovial tissue was obtained from rheumatoid arthritis patients undergoing knee replacement surgery. […] Subsequently, the cells were washed 3 times with RPMI 1640 culture medium and resuspended in complete medium (RPMI 1640 culture medium supplemented with 5% FBS and 5% human serum-AB+(Sigma, USA) at a concentration of 1×10^6 cells/mL. The viability of synovial cells was determined by trypan blue dye exclusion and was uniformly ≧98%. For the experiment, 100 μL of cell suspension was added to the wells of a 96-well culture plate (Nunc, USA). Following cell plating, 100 μL of the culture medium and 1 μL of various concentrations of the test compound (test compound was dissolved in DMSO to obtain a stock solution of 20 mM. […] The IC50 values were calculated by a nonlinear regression method using the GraphPad software (Prism 3.03).
# IFN-γ = assay: Cytokine release assay in hPBMCs: IFN-γ; format: cell-based; settings: Homo sapiens
# Protocol: as §1, §2
smiles,measurement,setting,value
"C/C=C/C(O)C(C)/C=C/C(=N\O)C(C)C(O)C(C)C1OC(=O)/C(OC)=C/C(C)=C/C(C)C(O)C(CC)C(O)C(C)C/C(C)=C/C=C/C1OC (centres unmarked) [Compound of example 7, (3Z,5E,13E,15E)-18-((5Z,6E,10E)-3,9-Dihydroxy-5-(hydroxymino)-4,8-dimethyldodeca-6,10-dien-2-yl)-9-ethyl-8,10-dihydroxy-3,17-dimethoxy-5,7,11,13-tetramethyl oxacyclooctadeca-3,5,13,15-tetraen-2-one]",IL-1β gene expression,"IL-1β; Human monocytes, 3 h, ± SE, N = 3",−4.0 log fold change
same,IL-1β gene expression,"IL-1β; Synovial cells, 12 h, N = 1",−0.3 log fold change
same,IL-1β gene expression,"IL-1β; THP-1 cells, 12 h, ± SE, N = 3",−0.6 + 0.7 log fold change
same,pIC50,"IL-2; Table 3: PHA-PMA induced hPBMC's, 48 h, read-out: IL-2 IC50",8.30
same,IC50,"IL-2; Table 4: mitogen stimulated production from hPBMC's, read-out: IL-2 (IC50 μM)",0.007 µM
same,pIC50,TNF-α,4.72
same,pIC50,"IFN-γ; Table 3: PHA-PMA induced hPBMC's, 48 h, read-out: IFN-γ IC50",7.70
same,IC50,"IFN-γ; Table 4: mitogen stimulated production from hPBMC's, read-out: IFN-γ (IC50 μM)",0.1 µM
